{
  "source": "ChEMBL document CHEMBL1201862",
  "about": "“PubChem BioAssay data set” (2004)",
  "key": {"Kallikrein-7": {"molecular_target": "Kallikrein-7 (Homo sapiens, UniProt P49862)", "sequence (P49862 whole entry)": "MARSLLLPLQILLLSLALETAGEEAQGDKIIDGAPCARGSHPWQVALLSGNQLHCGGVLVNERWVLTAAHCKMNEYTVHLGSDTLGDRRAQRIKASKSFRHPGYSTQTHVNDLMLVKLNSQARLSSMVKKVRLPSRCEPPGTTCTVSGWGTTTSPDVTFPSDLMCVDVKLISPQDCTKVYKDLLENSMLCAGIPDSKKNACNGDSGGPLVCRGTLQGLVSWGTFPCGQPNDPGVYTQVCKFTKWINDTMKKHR", "test": "Fluorescence Intensity-based biochemical primary high throughput dose response assay to identify activators of kallikrein-7 (K7) zymogen."}, "[1]": {"test": "A375 melanoma cell cytotoxicity, dose response, counter-screen for MITF inhibitor project, CellTiter-Glo luminescence, dry powder, set 2 (AID 624489);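 note: actives are compounds lowering A375 viability meaning general cytotoxicity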", "format": "functional, cell-based", "conditions": "A-375"}, "[2]": {"test": "A375 melanoma cell viability loss, dose response, counter-screen for MITF inhibitor project, CellTiter-Glo luminescence, dry powder, set 4 (AID 624364);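 note: A375 melanoma cells are MITF independent so this is a counter screen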", "format": "functional, cell-based", "conditions": "A-375"}, "Aminopeptidase N": {"molecular_target": "T1, Aminopeptidase N (Plasmodium falciparum FcB1/Columbia, UniProt O96935)", "T1 sequence (O96935 whole entry)": "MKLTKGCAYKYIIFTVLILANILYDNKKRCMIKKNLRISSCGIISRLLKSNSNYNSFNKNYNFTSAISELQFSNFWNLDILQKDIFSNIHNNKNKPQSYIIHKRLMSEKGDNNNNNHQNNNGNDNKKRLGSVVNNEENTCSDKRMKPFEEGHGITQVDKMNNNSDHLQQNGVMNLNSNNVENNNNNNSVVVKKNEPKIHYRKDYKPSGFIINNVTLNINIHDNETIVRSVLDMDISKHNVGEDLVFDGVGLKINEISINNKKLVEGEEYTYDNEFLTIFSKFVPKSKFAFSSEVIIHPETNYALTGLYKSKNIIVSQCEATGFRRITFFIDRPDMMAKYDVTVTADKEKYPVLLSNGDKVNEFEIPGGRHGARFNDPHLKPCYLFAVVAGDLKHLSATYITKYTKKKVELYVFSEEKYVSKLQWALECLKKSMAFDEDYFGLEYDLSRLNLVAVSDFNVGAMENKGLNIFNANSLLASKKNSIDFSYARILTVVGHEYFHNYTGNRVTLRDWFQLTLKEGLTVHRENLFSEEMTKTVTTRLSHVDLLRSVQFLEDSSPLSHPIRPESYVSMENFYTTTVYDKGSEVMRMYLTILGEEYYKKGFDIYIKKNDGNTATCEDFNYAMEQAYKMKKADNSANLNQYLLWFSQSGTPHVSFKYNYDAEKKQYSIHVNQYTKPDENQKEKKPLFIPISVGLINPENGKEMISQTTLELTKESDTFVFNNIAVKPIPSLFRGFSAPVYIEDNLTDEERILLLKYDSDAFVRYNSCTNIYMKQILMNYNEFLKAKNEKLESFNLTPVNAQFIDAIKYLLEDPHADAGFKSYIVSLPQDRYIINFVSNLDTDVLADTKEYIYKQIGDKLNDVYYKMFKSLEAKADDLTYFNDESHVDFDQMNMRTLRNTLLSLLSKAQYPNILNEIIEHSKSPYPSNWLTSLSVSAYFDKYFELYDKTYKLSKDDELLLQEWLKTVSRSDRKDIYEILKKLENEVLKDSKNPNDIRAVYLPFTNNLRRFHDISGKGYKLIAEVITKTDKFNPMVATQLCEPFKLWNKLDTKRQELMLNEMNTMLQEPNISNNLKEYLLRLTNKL", "test": "P. falciparum M1AAP inhibitors, biochemical, fluorogenic H-Leu-NHMec substrate, 1536-well (AID 1445)", "parameters": "species or system Plasmodium falciparum 3D7, 3D7"}, "[3]": {"molecular_target": "Endoplasmic reticulum aminopeptidase 1 (Homo sapiens, UniProt Q9NZ08)", "sequence (Q9NZ08 whole entry)": "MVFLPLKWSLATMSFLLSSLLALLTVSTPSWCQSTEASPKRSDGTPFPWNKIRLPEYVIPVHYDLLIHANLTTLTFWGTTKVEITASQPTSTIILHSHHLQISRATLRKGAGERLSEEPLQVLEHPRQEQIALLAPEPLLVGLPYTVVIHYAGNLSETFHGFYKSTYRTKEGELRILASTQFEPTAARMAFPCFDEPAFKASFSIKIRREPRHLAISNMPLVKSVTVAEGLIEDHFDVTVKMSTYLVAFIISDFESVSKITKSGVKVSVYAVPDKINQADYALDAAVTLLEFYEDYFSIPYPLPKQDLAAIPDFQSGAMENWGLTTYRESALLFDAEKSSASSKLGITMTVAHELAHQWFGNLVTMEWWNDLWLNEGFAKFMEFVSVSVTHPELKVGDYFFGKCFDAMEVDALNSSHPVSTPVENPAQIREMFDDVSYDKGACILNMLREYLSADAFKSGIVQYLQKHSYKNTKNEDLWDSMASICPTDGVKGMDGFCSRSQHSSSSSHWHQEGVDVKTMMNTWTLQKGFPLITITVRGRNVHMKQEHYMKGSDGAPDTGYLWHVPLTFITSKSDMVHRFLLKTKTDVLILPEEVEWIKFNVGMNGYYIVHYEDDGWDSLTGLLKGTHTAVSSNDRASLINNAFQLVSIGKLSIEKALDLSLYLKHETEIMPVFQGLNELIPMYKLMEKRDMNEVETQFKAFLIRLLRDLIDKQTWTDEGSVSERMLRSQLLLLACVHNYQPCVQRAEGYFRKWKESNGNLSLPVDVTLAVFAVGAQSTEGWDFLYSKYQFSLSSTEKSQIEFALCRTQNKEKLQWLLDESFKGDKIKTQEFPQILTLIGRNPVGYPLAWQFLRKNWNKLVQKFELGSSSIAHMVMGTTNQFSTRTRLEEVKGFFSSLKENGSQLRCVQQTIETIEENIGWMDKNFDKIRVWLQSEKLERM", "test": "ERAP1 aminopeptidase inhibitors, dose response, biochemical, cherry-pick, set 2, plate reader (AID 743314)"}, "[4]": {"test": "cytotoxicity toward NIH3T3 fibroblasts, dose response, counter-screen, cell-based, ATP luminescence, mouse fibroblasts (AID 2010);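 note: cells exposed to compound for about 90 hours before reading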", "format": "functional"}, "[5]": {"test": "inhibitors of intracellular T. cruzi replication, confirmation, NIH3T3 host cells, beta-gal luminescence (AID 2044);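 note: luminescent beta-galactosidase reporter signal from transgenic T. cruzi replicating inside host cells; inhibitors lower the luminescence signal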", "format": "functional, cell-based"}, "[6]": {"test": "Luminescence Cell-Based Dose Retest to Confirm Inhibitors of Cancer Stem Cells. [Related pubchem assays (depositor defined):AID2717, AID2721]", "format": "functional", "conditions": "Homo sapiens"}, "[7]": {"test": "Dose-response inhibition of insulin secretion in a rat insulinoma line at 5 mM glucose (AID 1117331)", "format": "functional, cell-based", "conditions": "INS-1E"}, "[8]": {"test": "NIH:OVCAR-3 ovarian cancer cell cytotoxicity, dose response, PAX8 inhibitor project, plate reader, dry powder samples (AID 743044)", "format": "functional, cell-based"}, "Paired box protein Pax-8": {"molecular_target": "Paired box protein Pax-8 (Homo sapiens, UniProt Q06710)", "sequence (Q06710 whole entry)": "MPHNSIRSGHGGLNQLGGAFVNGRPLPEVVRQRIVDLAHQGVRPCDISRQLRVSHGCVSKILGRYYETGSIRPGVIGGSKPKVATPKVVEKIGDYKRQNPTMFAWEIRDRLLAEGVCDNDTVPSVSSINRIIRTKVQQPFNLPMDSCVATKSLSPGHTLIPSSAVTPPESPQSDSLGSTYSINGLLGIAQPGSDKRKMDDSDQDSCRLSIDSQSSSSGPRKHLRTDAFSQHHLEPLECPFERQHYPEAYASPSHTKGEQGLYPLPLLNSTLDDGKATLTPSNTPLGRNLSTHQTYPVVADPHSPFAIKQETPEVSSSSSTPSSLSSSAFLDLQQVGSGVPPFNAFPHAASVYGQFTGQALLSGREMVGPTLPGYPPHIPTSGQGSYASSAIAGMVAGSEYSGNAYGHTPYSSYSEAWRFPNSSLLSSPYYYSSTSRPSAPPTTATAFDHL", "test": "inhibitors of PAX8-driven TPO luciferase reporter, dose response, RMG-I cells, cherry-pick (AID 687027);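 note: luciferase reporter driven by Pax8 target thyroperoxidase promoter measured by SteadyGlo luminescence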", "format": "functional, cell-based"}, "[9]": {"test": "cytotoxicity in OVCAR8 ovarian cancer cells, dose response, PAX8 project, cell-based, plate reader, dry powder samples (AID 743197)", "format": "functional", "conditions": "OVCAR-8"}, "[10]": {"test": "A2780 ovarian cancer cell cytotoxicity, dose response, cytotoxicity control, plate reader, dry powder samples (AID 743046)", "format": "functional, cell-based"}, "[11]": {"molecular_target": "Peroxisome proliferator-activated receptor gamma/Nuclear receptor coactivator 2 (Homo sapiens, UniProt P37231)", "test": "(§1) TR-FRET dose response biochemical High Throughput Screening assay for agonists of the steroid receptor coactivator 2 (SRC-2) recruitment by the peroxisome proliferator-activated receptor gamma (PPAR gamma): non-selective agonists. [Related pubchem assays: 1297, 1032 ]", "format": "functional"}, "[12]": {"molecular_target": "Peroxisome proliferator-activated receptor gamma/Nuclear receptor coactivator 3 (Homo sapiens, UniProt P37231)", "sequence (P37231 whole entry)": "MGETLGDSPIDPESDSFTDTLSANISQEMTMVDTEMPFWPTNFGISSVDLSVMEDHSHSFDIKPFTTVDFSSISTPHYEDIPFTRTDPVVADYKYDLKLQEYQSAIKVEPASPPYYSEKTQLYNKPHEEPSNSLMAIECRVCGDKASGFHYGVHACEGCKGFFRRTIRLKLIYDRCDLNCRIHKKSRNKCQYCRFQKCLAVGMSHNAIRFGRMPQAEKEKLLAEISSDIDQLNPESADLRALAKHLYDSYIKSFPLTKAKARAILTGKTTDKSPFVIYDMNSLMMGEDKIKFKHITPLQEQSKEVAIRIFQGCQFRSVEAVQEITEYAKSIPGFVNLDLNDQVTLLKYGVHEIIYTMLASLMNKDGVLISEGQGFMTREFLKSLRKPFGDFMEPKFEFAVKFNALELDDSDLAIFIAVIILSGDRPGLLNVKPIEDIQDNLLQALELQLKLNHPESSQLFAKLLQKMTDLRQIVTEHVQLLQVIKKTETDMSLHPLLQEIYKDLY", "sequence (Q9Y6Q9 whole entry, further chain)": "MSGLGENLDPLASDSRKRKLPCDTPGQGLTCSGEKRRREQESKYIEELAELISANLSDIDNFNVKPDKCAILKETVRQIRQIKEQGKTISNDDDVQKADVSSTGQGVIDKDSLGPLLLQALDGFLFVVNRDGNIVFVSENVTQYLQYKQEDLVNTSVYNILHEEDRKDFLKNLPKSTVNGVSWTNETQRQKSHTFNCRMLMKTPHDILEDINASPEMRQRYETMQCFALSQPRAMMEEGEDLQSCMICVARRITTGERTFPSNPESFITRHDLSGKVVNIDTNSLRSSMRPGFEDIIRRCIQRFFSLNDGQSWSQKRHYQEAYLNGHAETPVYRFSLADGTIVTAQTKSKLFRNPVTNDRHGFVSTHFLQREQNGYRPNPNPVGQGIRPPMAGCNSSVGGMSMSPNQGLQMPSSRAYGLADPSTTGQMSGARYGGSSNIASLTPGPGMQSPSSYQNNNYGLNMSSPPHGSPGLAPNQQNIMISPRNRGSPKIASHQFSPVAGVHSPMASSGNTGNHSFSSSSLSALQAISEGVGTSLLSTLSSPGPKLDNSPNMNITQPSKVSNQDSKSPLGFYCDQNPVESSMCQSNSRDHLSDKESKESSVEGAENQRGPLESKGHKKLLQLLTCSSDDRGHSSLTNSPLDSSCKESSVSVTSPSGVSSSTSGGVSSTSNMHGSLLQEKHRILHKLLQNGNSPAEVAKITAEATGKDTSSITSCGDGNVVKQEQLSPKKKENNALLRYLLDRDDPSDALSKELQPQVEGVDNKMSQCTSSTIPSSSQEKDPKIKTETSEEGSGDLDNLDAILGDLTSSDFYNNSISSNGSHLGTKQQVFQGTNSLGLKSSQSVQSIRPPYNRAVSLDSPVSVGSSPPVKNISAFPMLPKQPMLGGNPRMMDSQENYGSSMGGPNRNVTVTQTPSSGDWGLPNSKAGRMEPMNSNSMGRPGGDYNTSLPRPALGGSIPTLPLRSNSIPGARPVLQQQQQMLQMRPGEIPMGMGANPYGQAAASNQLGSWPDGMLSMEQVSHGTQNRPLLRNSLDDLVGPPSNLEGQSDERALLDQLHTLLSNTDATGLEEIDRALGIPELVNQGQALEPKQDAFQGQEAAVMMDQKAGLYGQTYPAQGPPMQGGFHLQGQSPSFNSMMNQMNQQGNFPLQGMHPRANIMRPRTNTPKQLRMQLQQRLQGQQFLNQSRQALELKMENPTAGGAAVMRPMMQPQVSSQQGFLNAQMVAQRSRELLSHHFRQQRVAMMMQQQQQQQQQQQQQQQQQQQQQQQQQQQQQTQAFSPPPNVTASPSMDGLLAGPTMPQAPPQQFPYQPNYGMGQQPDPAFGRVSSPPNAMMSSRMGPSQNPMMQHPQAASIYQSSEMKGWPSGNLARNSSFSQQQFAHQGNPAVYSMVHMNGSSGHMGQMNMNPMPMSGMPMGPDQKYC", "test": "as §1, with “3 (SRC-3)” for “2 (SRC-2)”, “1301 (Confirmation screen.), 1048 (Primary screen.)]” for “1297, 1032 ]”", "format": "functional"}, "[13]": {"molecular_target": "Peroxisome proliferator-activated receptor gamma/Nuclear receptor coactivator 1 (Homo sapiens, UniProt P37231)", "test": "as §1, with “1 (SRC-1)” for “2 (SRC-2)”, “assays (depositor defined):AID1300, AID1808, AID504735, AID631]” for “assays: 1297, 1032 ]”", "format": "protein assay"}, "fMet-Leu-Phe receptor": {"molecular_target": "T2, fMet-Leu-Phe receptor (Homo sapiens, UniProt P21462)", "T2 sequence (P21462 whole entry)": "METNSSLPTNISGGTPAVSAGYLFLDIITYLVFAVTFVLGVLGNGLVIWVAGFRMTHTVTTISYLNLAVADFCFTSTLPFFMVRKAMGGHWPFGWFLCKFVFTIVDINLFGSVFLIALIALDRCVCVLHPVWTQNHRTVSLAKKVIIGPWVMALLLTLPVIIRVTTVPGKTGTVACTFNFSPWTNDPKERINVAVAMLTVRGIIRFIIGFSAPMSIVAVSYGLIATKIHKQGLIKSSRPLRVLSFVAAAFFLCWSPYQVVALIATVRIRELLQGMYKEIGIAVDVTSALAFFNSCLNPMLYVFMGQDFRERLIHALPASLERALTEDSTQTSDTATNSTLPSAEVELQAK", "test": "FPR ligands, dose response (AID 519)", "format": "functional"}},
  "note": "The source made the active and inactive calls.",
  "data": [
    {"smiles": "O=c1c(-c2ccccc2)coc2c(CN3CCOCC3)c(O)ccc12", "values": [
      {"measurement": "EC50", "setting": "Kallikrein-7", "result": "12.4 µM (inactive)"}
    ]},
    {"smiles": "CC(=O)N(C)C1=C(N2CCCCC2)C(=O)c2ccccc2C1=O", "values": [
      {"measurement": "AC50", "setting": "[1]", "result": "14.8 µM (active)"},
      {"measurement": "AC50", "setting": "[2]", "result": "27.1 µM (active)"}
    ]},
    {"smiles": "Cc1cc(=O)oc2c(CN3CCN(C)CC3)c(O)c(Cl)cc12", "values": [
      {"measurement": "IC50", "setting": "Aminopeptidase N", "result": "33.6 µM (active)"},
      {"measurement": "AC50", "setting": "[3]", "result": "6.77 µM (active)"}
    ]},
    {"smiles": "Cc1ccc(NC(=O)C2=CC(c3cccs3)=NS(=O)(=O)N2C)cc1", "values": [
      {"measurement": "EC50", "setting": "Kallikrein-7", "result": "33.9 µM (inactive)"}
    ]},
    {"smiles": "Cc1cc(Nc2cccc(F)c2)nc(-c2ccccc2O)n1", "values": [
      {"measurement": "EC50", "setting": "[4]", "result": "> 60 µM (not active)"},
      {"measurement": "EC50", "setting": "Kallikrein-7", "result": "> 69.5 µM (inactive)"},
      {"measurement": "EC50", "setting": "[5]", "result": "4.15 µM (active)"},
      {"measurement": "AC50", "setting": "[6]", "result": "3.68 µM (active)"}
    ]},
    {"smiles": "CC(CCc1ccccc1)NC(C)C(O)c1ccc(O)cc1", "note": "(centres undefined) [NYLIDRIN]", "values": [
      {"measurement": "IC50", "setting": "[7]", "result": "14.5 µM (inactive)"}
    ]},
    {"smiles": "C[C@@H]1CCCCO[C@H](CN(C)C(=O)Cc2ccccc2)[C@@H](C)CN([C@@H](C)CO)C(=O)c2cc(NC(=O)Nc3ccc(C(F)(F)F)cc3)ccc2O1", "values": [
      {"measurement": "AC50", "setting": "[8]", "result": "54.5 µM (active)"},
      {"measurement": "AC50", "setting": "Paired box protein Pax-8", "result": "2.85 µM (active)"},
      {"measurement": "AC50", "setting": "[9]", "result": "58.8 µM (active)"},
      {"measurement": "AC50", "setting": "[10]", "result": "54.7 µM (active)"}
    ]},
    {"smiles": "COc1ccc(C(=O)C2=C(O)C(=O)N(c3nc(C)c(C)s3)C2c2ccco2)cc1", "note": "(centres undefined)", "values": [
      {"measurement": "EC50", "setting": "[11]", "result": "37.9 µM (not active)"},
      {"measurement": "EC50", "setting": "[12]", "result": "> 79.4 µM (not active)"},
      {"measurement": "EC50", "setting": "[13]", "result": "> 79.4 µM (inactive)"},
      {"measurement": "Ki", "setting": "fMet-Leu-Phe receptor", "result": "> 66.7 µM (inactive)"}
    ]}
  ]
}
